Experimental data reported in article PMC6979384, “Characterization of the plant homeodomain (PHD) reader family for their histone tail interactions” (Epigenetics & Chromatin, 2020).

Key:
Experiment in all cases: Histone peptide microarray
Format in all cases: binding, human
DIDO1 = details: total n = 4; for Array Heatmap signal (histone peptide microarray): GST-tagged DIDO1, sheet Array Heatmap, each array performed twice
In short: (§1)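 Purified PHD finger domains fused to GST are screened against 293 synthetic histone peptides bearing one or several post-translational modifications. The protein is used at 0.5 μM, and the signal from four replicate arrays is averaged, with standard deviation given.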

TRIM66 (PB) = details: total n = 4; for Array Heatmap signal (histone peptide microarray): GST-tagged TRIM66 (PB = PHD + Bromodomain), sheet Array Heatmap, each array performed twice
In short: as §1

PHF2 = details: total n = 4; for Array Heatmap signal (histone peptide microarray): GST-tagged PHF2, sheet Array Heatmap, each array performed twice
In short: as §1

ING4 = details: total n = 4; for Array Heatmap signal (histone peptide microarray): GST-tagged ING4, sheet Array Heatmap, each array performed twice
In short: as §1

PHF8 = details: total n = 4; for Array Heatmap signal (histone peptide microarray): GST-tagged PHF8, sheet Array Heatmap, each array performed twice
In short: as §1

MORC3 (CW) = details: total n = 4; for Array Heatmap signal (histone peptide microarray): GST-tagged MORC3 (CW = CW-type Zn-finger), sheet Array Heatmap, each array performed twice
In short: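 Each reader, produced as a GST fusion and purified, was tested at 0.5 μM on synthetic histone peptides (293 in total) carrying single or combinatorial marks. Intensities averaged over four replicates.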

PHRF1 (RP) = details: total n = 4; for Array Heatmap signal (histone peptide microarray): GST-tagged PHRF1 (RP), sheet Array Heatmap, each array performed twice
In short: as §1

RAG2 = details: total n = 4; for Array Heatmap signal (histone peptide microarray): GST-tagged RAG2, sheet Array Heatmap, each array performed twice
In short: as §1

ING5 = details: total n = 4; for Array Heatmap signal (histone peptide microarray): GST-tagged ING5, sheet Array Heatmap, each array performed twice
In short: as §1

AIRE (PP) = details: total n = 4; for Array Heatmap signal (histone peptide microarray): GST-tagged AIRE (PP), sheet Array Heatmap, each array performed twice
In short: as §1

TAF3 = details: total n = 4; for Array Heatmap signal (histone peptide microarray): GST-tagged TAF3, sheet Array Heatmap, each array performed twice
In short: as §1

PHF13 = details: total n = 4; for Array Heatmap signal (histone peptide microarray): GST-tagged PHF13, sheet Array Heatmap, each array performed twice
In short: as §1

DPF2 (PPC2W2) = details: total n = 4; for Array Heatmap signal (histone peptide microarray): GST-tagged DPF2 (PPC2W2 = Dual PHD + C2W2-type Zn-finger), sheet Array Heatmap, each array performed twice
In short: as §1

CHD4 (PPCC) = details: total n = 4; for Array Heatmap signal (histone peptide microarray): GST-tagged CHD4 (PPCC = Dual PHD + Dual Chromodomain), sheet Array Heatmap, each array performed twice
In short: as §1

ING3 = details: total n = 4; for Array Heatmap signal (histone peptide microarray): GST-tagged ING3, sheet Array Heatmap, each array performed twice
In short: as §1

KDM5B (1) = details: total n = 4; for Array Heatmap signal (histone peptide microarray): GST-tagged KDM5B (1), sheet Array Heatmap, each array performed twice
In short: as §1

KDM4C (TTP) = details: total n = 4; for Array Heatmap signal (histone peptide microarray): GST-tagged KDM4C (TTP = Tandem Tudor domain + PHD), sheet Array Heatmap, each array performed twice
In short: as §1

MLL5 = details: total n = 4; for Array Heatmap signal (histone peptide microarray): GST-tagged MLL5, sheet Array Heatmap, each array performed twice
In short: as §1

PHF23 = details: total n = 4; for Array Heatmap signal (histone peptide microarray): GST-tagged PHF23, sheet Array Heatmap, each array performed twice
In short: as §1

CHD5 (PPCC) = details: total n = 4; for Array Heatmap signal (histone peptide microarray): GST-tagged CHD5 (PPCC = Dual PHD + Dual Chromodomain), sheet Array Heatmap, each array performed twice
In short: as §1

SP140L = details: total n = 4; for Array Heatmap signal (histone peptide microarray): GST-tagged SP140L, sheet Array Heatmap, each array performed twice
In short: as §1

BPTF (PB) = details: total n = 4; for Array Heatmap signal (histone peptide microarray): GST-tagged BPTF (PB = PHD + Bromodomain), sheet Array Heatmap, each array performed twice
In short: as §1

KDM7A = details: total n = 4; for Array Heatmap signal (histone peptide microarray): GST-tagged KDM7A, sheet Array Heatmap, each array performed twice
In short: as §1

PHF21A = details: total n = 4; for Array Heatmap signal (histone peptide microarray): GST-tagged PHF21A, sheet Array Heatmap, each array performed twice
In short: as §1

KDM5A (3) = details: total n = 4; for Array Heatmap signal (histone peptide microarray): GST-tagged KDM5A (3), sheet Array Heatmap, each array performed twice
In short: as §1

ING2 = details: total n = 4; for Array Heatmap signal (histone peptide microarray): GST-tagged ING2, sheet Array Heatmap, each array performed twice
In short: as §1

KDM5B (3) = details: total n = 4; for Array Heatmap signal (histone peptide microarray): GST-tagged KDM5B (3), sheet Array Heatmap, each array performed twice
In short: as §1

CHD5 (PCC) = details: total n = 4; for Array Heatmap signal (histone peptide microarray): GST-tagged CHD5 (PCC = PHD + Dual Chromodomain), sheet Array Heatmap, each array performed twice
In short: as §1

BAZ2B = details: total n = 4; for Array Heatmap signal (histone peptide microarray): GST-tagged BAZ2B, sheet Array Heatmap, each array performed twice
In short: as §1

ING1 = details: total n = 4; for Array Heatmap signal (histone peptide microarray): GST-tagged ING1, sheet Array Heatmap, each array performed twice
In short: as §1

KDM5A (1) = details: total n = 4; for Array Heatmap signal (histone peptide microarray): GST-tagged KDM5A (1), sheet Array Heatmap, each array performed twice
In short: as §1

[1] = sheet "Array Heatmap", GST-tagged reader, histone peptide array

H3K4me3 + K9ac: H3 1-20
Array Heatmap signal (histone peptide microarray) (DIDO1): 0.9386
Array Heatmap signal (histone peptide microarray) (TRIM66 (PB)): 0.6603
Array Heatmap signal (histone peptide microarray) (PHF2): 0.9106
Array Heatmap signal (histone peptide microarray) (ING4): 0.6305
Array Heatmap signal (histone peptide microarray) (PHF8): 0.6077
Array Heatmap signal (histone peptide microarray) (MORC3 (CW)): 0.7776
Array Heatmap signal (histone peptide microarray) (PHRF1 (RP)): 0.6133
Array Heatmap signal (histone peptide microarray) (RAG2): 0.8735
Array Heatmap signal (histone peptide microarray) (ING5): 0.4241
Array Heatmap signal (histone peptide microarray) (AIRE (PP)): 0.4068
Array Heatmap signal (histone peptide microarray) (TAF3): 0.7366
Array Heatmap signal (histone peptide microarray) (PHF13): 0.7477
Array Heatmap signal (histone peptide microarray) (DPF2 (PPC2W2)): 0.7108
Array Heatmap signal (histone peptide microarray) (CHD4 (PPCC)): 0.6185
Array Heatmap signal (histone peptide microarray) (ING3): 0.8165
Array Heatmap signal (histone peptide microarray) (KDM5B (1)): 0.7027
Array Heatmap signal (histone peptide microarray) (KDM4C (TTP)): 0.5829
Array Heatmap signal (histone peptide microarray) (MLL5): 0.8313
Array Heatmap signal (histone peptide microarray) (PHF23): 0.8466
Array Heatmap signal (histone peptide microarray) (CHD5 (PPCC)): 0.5612
Array Heatmap signal (histone peptide microarray) (SP140L): 0.3446
Array Heatmap signal (histone peptide microarray) (BPTF (PB)): 0.6012
Array Heatmap signal (histone peptide microarray) (KDM7A): 0.4556
Array Heatmap signal (histone peptide microarray) (PHF21A): 0.4382
Array Heatmap signal (histone peptide microarray) (KDM5A (3)): 0.93
Array Heatmap signal (histone peptide microarray) (ING2): 0.8738
Array Heatmap signal (histone peptide microarray) (KDM5B (3)): 0.7448
Array Heatmap signal (histone peptide microarray) (CHD5 (PCC)): 0.7875
Array Heatmap signal (histone peptide microarray) (BAZ2B): 0.4768
Array Heatmap signal (histone peptide microarray) (ING1): 0.8182
Array Heatmap signal (histone peptide microarray) (KDM5A (1)): 0.468

H3K4me3 + K9me3: H3 1-20
Array Heatmap signal, DIDO1 (DIDO1; [1]): 0.7556
Array Heatmap signal, TRIM66 (PB) (TRIM66 (PB); [1]): 0.5701
Array Heatmap signal, PHF2 (PHF2; [1]): 0.6501
Array Heatmap signal, ING4 (ING4; [1]): 0.4847
Array Heatmap signal, PHF8 (PHF8; [1]): 0.4712
Array Heatmap signal, MORC3 (CW) (MORC3 (CW); [1]): 0.5189
Array Heatmap signal, PHRF1 (RP) (PHRF1 (RP); [1]): 0.5034
Array Heatmap signal, RAG2 (RAG2; [1]): 0.359
Array Heatmap signal, ING5 (ING5; [1]): 0.4091
Array Heatmap signal, AIRE (PP) (AIRE (PP); [1]): 0.4775
Array Heatmap signal, TAF3 (TAF3; [1]): 0.3501
Array Heatmap signal, PHF13 (PHF13; [1]): 0.6561
Array Heatmap signal, DPF2 (PPC2W2) (DPF2 (PPC2W2); [1]): 0.7108
Array Heatmap signal, CHD4 (PPCC) (CHD4 (PPCC); [1]): 0.5681
Array Heatmap signal, ING3 (ING3; [1]): 0.5385
Array Heatmap signal, KDM5B (1) (KDM5B (1); [1]): 0.6368
Array Heatmap signal, KDM4C (TTP) (KDM4C (TTP); [1]): 0.5629
Array Heatmap signal, MLL5 (MLL5; [1]): 0.6708
Array Heatmap signal, PHF23 (PHF23; [1]): 0.5934
Array Heatmap signal, CHD5 (PPCC) (CHD5 (PPCC); [1]): 0.5893
Array Heatmap signal, SP140L (SP140L; [1]): 0.3795
Array Heatmap signal, BPTF (PB) (BPTF (PB); [1]): 0.3806
Array Heatmap signal, KDM7A (KDM7A; [1]): 0.4063
Array Heatmap signal, PHF21A (PHF21A; [1]): 0.4927
Array Heatmap signal, KDM5A (3) (KDM5A (3); [1]): 0.6222
Array Heatmap signal, ING2 (ING2; [1]): 0.7112
Array Heatmap signal, KDM5B (3) (KDM5B (3); [1]): 0.5506
Array Heatmap signal, CHD5 (PCC) (CHD5 (PCC); [1]): 0.7845
Array Heatmap signal, BAZ2B (BAZ2B; [1]): 0.4905
Array Heatmap signal, ING1 (ING1; [1]): 0.6677
Array Heatmap signal, KDM5A (1) (KDM5A (1); [1]): 0.4868

H3K4me3 + K14ac + K18ac: H3 1-20
Array Heatmap signal (histone peptide microarray) (DIDO1): 0.9566
Array Heatmap signal (histone peptide microarray) (TRIM66 (PB)): 0.7091
Array Heatmap signal (histone peptide microarray) (PHF2): 0.829
Array Heatmap signal (histone peptide microarray) (ING4): 0.8448
Array Heatmap signal (histone peptide microarray) (PHF8): 0.9943
Array Heatmap signal (histone peptide microarray) (MORC3 (CW)): 0.9877
Array Heatmap signal (histone peptide microarray) (PHRF1 (RP)): 0.6285
Array Heatmap signal (histone peptide microarray) (RAG2): 1
Array Heatmap signal (histone peptide microarray) (ING5): 0.6681
Array Heatmap signal (histone peptide microarray) (AIRE (PP)): 0.5611
Array Heatmap signal (histone peptide microarray) (TAF3): 1
Array Heatmap signal (histone peptide microarray) (PHF13): 0.9146
Array Heatmap signal (histone peptide microarray) (DPF2 (PPC2W2)): 0.7705
Array Heatmap signal (histone peptide microarray) (CHD4 (PPCC)): 0.5986
Array Heatmap signal (histone peptide microarray) (ING3): 1
Array Heatmap signal (histone peptide microarray) (KDM5B (1)): 0.8317
Array Heatmap signal (histone peptide microarray) (KDM4C (TTP)): 0.868
Array Heatmap signal (histone peptide microarray) (MLL5): 0.9197
Array Heatmap signal (histone peptide microarray) (PHF23): 0.9183
Array Heatmap signal (histone peptide microarray) (CHD5 (PPCC)): 0.6153
Array Heatmap signal (histone peptide microarray) (SP140L): 0.3709
Array Heatmap signal (histone peptide microarray) (BPTF (PB)): 1
Array Heatmap signal (histone peptide microarray) (KDM7A): 0.7919
Array Heatmap signal (histone peptide microarray) (PHF21A): 0.4924
Array Heatmap signal (histone peptide microarray) (KDM5A (3)): 0.9424
Array Heatmap signal (histone peptide microarray) (ING2): 0.908
Array Heatmap signal (histone peptide microarray) (KDM5B (3)): 0.9729
Array Heatmap signal (histone peptide microarray) (CHD5 (PCC)): 0.8498
Array Heatmap signal (histone peptide microarray) (BAZ2B): 0.6645
Array Heatmap signal (histone peptide microarray) (ING1): 0.9274
Array Heatmap signal (histone peptide microarray) (KDM5A (1)): 0.5146
